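Exposure lasted 48 hours, with cells grown in 96-well plates and compounds tested at five concentrations. GI50: concentration for 50% inhibition of growth. TGI denotes the concentration required for complete inhibition of growth.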
Legend:
Assay in all cases: NCI tumour cell line growth inhibition, 48 h
[1] = test system: NCI-H23 lung
[2] = test system: NCI-H460 lung
[3] = test system: NCI-H522 lung
[4] = test system: NCI/ADR-RES ovarian
[5] = test system: OVCAR-3 ovarian
[6] = test system: OVCAR-4 ovarian
[7] = test system: OVCAR-5 ovarian
[8] = test system: OVCAR-8 ovarian
[9] = test system: PC-3 prostate
[10] = test system: RPMI-8226 leukemia
[11] = test system: RXF 393 renal
[12] = test system: SF-268 CNS
[13] = test system: SF-295 CNS
[14] = test system: SF-539 CNS
[15] = test system: SK-MEL-2 melanoma
[16] = test system: SK-MEL-28 melanoma
[17] = test system: SK-MEL-5 melanoma
[18] = test system: SK-OV-3 ovarian
[19] = test system: SN12C renal
[20] = test system: SNB-19 CNS
[21] = test system: SNB-75 CNS
[22] = test system: SR leukemia
[23] = test system: SW-620 colon
[24] = test system: T-47D breast
[25] = test system: TK-10 renal
[26] = test system: U251 CNS
[27] = test system: UACC-257 melanoma
[28] = test system: UACC-62 melanoma
[29] = test system: UO-31 renal

SMILES: Cc1ccc(NC(=O)c2ccoc2)cc1-c1ccc(C(=O)NCC2CC2)cc1
- GI50 [1]: > 25 µM
- TGI [1]: > 25 µM
- GI50 [2]: > 24 µM
- TGI [2]: > 25 µM
- GI50 [3]: > 15.9 µM
- TGI [3]: > 25 µM
- GI50 [4]: > 18.8 µM
- TGI [4]: > 25 µM
- GI50 [5]: > 17.9 µM
- TGI [5]: > 25 µM
- GI50 [6]: > 18.8 µM
- TGI [6]: > 25 µM
- GI50 [7]: > 25 µM
- TGI [7]: > 25 µM
- GI50 [8]: > 25 µM
- TGI [8]: > 25 µM
- GI50 [9]: > 17 µM
- TGI [9]: > 25 µM
- GI50 [10]: > 16.2 µM
- TGI [10]: > 25 µM
- GI50 [11]: > 25 µM
- TGI [11]: > 25 µM
- GI50 [12]: > 25 µM
- TGI [12]: > 25 µM
- GI50 [13]: > 14.8 µM
- TGI [13]: > 25 µM
- GI50 [14]: > 25 µM
- TGI [14]: > 25 µM
- GI50 [15]: > 25 µM
- TGI [15]: > 25 µM
- GI50 [16]: > 25 µM
- TGI [16]: > 25 µM
- GI50 [17]: 7.75 µM
- TGI [17]: > 25 µM
- GI50 [18]: > 25 µM
- TGI [18]: > 25 µM
- GI50 [19]: > 25 µM
- TGI [19]: > 25 µM
- GI50 [20]: > 25 µM
- TGI [20]: > 25 µM
- GI50 [21]: > 25 µM
- TGI [21]: > 25 µM
- GI50 [22]: > 25 µM
- TGI [22]: > 25 µM
- GI50 [23]: > 25 µM
- TGI [23]: > 25 µM
- GI50 [24]: 7.16 µM
- TGI [24]: > 25 µM
- GI50 [25]: > 25 µM
- TGI [25]: > 25 µM
- GI50 [26]: > 25 µM
- TGI [26]: > 25 µM
- GI50 [27]: > 17.7 µM
- TGI [27]: > 25 µM
- GI50 [28]: 13.9 µM
- TGI [28]: > 25 µM
- GI50 [29]: > 9.98 µM
- TGI [29]: > 17.1 µM
